In PMC8957950 (Frontiers in Pharmacology, 2022):
Where two headings read alike, the source gives them in different places.

What was measured:
Gram-positive bacteria = experiment: Clinical and microbiological efficacy evaluation of TEI treatment; format: in vivo, human; conditions: for Eradication rate of Gram-positive bacteria: eradication or presumed eradication
Method: According to the guiding principles of Clinical Trial Technology of antibacterial agents (2014 edition) ([Writing Group of Guidance for Clinical Trials of Antibacterial Drugs, 2014]), the judgment on efficacy evaluation includes clinical efficacy and microbiological efficacy. Clinical efficacy was evaluated after 7–14 days of medication. Clinical efficacy was evaluated in terms of clinical cure and clinical failure. Clinical cure is defined as the complete resolution or significant improvement of pretreatment infection signs and symptoms such that no additional antimicrobial therapy is needed. Clinical failure is defined as no apparent response or an incomplete response that needs additional antibiotic therapy for infections. The microbiological efficacy was evaluated as eradication, presumed eradication, no eradication, and presumed no eradication. Microbiological success was defined as eradication or presumed eradication of Gram-positive bacteria ([Writing Group of Guidance for Clinical Trials of Anti-bacterial Drugs, 2014]). The primary outcomes were clinical cure and microbiological success rates at the end of treatment (EOT).
Univariate and multivariate logistic regression analyses were used to select the covariables of the regression model. We established the regression model for predicting the factors influencing the eradication of Gram-positive bacteria. In univariate analysis, the χ^2 test or the Fisher exact test was used to compare the categorical variables. Continuous variables were compared by using the Mann–Whitney U test. Covariates with p values <0.1 were included in the multivariate logistic regression analysis (backward procedure, based on the p-value of the predictor removed) ([Hammitt et al., 2019]). Multivariate logistic regression analysis was used to screen for independent risk factors. SPSS software automatically screened out the independent variables when the optimal balance was reached between the fitting degrees of the prediction model.
Independent risk factor variables were used to establish regression equations and calculate prediction probabilities. The receiver operating characteristic (ROC) curves of multivariate factors were drawn; the area under the curve (AUC), cutoff point, Youden index, sensitivity, and specificity were used to evaluate their predictive value for predicting the factors influencing the eradication of Gram-positive bacteria.

[1] = Excerpt: Patients’ data were obtained from the inpatients’ medical database.

Teicoplanin
Cases of presumed eradication of Gram-positive bacteria (Gram-positive bacteria; CRRT group): 4 cases | Clinical cure rate (Gram-positive bacteria; CRRT group (n = 40)): 67.5% | Eradication rate of Gram-positive bacteria (Gram-positive bacteria; CRRT group): 77.5% | Clinical cure rate (Gram-positive bacteria; non-CRRT group (n = 66)): 72.7% | Eradication rate of Gram-positive bacteria (Gram-positive bacteria; non-CRRT group): 81.8% | 28-day hospital mortality rate ([1]; CRRT group): 22.5% | 28-day hospital mortality rate ([1]; non-CRRT group): 15.2%
